pIC50: −log10 of the molar value. Where two headings read alike, the source gives them in different places.
Legend:
[1] = system: C57BL/6J mice; assay: Mouse head twitch; format: in vivo; conditions: mouse; for duration of HT expression: at 10-30 mg/kg; for head twitch response: doses of up to 30 mg/kg
Protocol: (§1) The effect of different doses of representative compounds of Formula I were evaluated on head-twitch response (HTR) and other behavioural responses indicative of serotonin syndrome as behavior-based models of psychedelic activity.
Male, C57BL/6J mice (body weight range 20-30 g) were dosed with the appropriate dose of test article, and following a 1-minute pre-treatment time, placed in individual observation chambers. Animals were visually assessed for the incidence head twitches continuously over a 1 hr period. Head twitches were defined as a rapid jerk of the head which was not elicited by an external tactile stimulus (Come and Pickering, Psychopharmacologia, 1967, 11(1): 65-78). Each head twitch was individually counted by a trained observer, and the data expressed as the mean+SEM of 6-10 mice per group. Mice were used in a single experiment only.

[2] = system: Sprague-Dawley rats; assay: Drug discrimination in the rat (5-MeO-DMT cue); format: in vivo; conditions: for dose required to show generalization to the 5-MeO-DMT cue: oral administration; for ED50: Rattus norvegicus, read-out: ED50, generalization to the 5-MeO-DMT cue
Protocol: Male Sprague-Dawley rats were initially food restricted by presentation of 18-20 g food at day end (single housing). After 7 days acclimatisation to the food restriction procedure, they were trained daily to lever press for food (45 mg Bioserve pellet) in standard 2-lever operant conditioning chambers controlled by Med-PC software over a period of 1 week (Med. Associates Ins., St. Albans, VT). The rats were trained to lever press for food to an FR10 value (i.e 10 lever presses for a single food reward). Once stable food responding was acquired to both response levers, discrimination training began. […] Training sessions lasted 30-min or until the delivery of 50 pellets and continued until the animals attained appropriate stimulus control (defined as six consecutive sessions where animals made no more than 16 lever presses before the delivery of the first reward, and at least 95% total responses on the appropriate lever). The rats continued to receive daily food ration in their home cage at day end.
Once trained, tests of substitution were conducted. […] Test sessions continued until 50 pellets had been obtained or 30 min had elapsed. During these sessions response rate was also measured.

[3] = target: human 5-HT2A receptor (Homo sapiens (Human), UniProt P28223); assay: Human 5-HT2A radioligand binding assay ([3H]-ketanserin)
[4] = system: mice; assay: Mouse 5-HT syndrome assay; format: in vivo; conditions: for signs of 5-HT syndrome: doses of up to 30 mg/kg
Protocol: as §1

[5] = system: mice; assay: Mouse locomotor activity and rearing assay; conditions: 1-30 mg/kg, compared with 5-MeO-DMT
[6] = Liver microsomes stability, human; conditions: for Remaining Percentage (%): Human
Protocol: (§2) The objective of this study was to estimate in vitro metabolic stability of representative compounds of the application in pooled human and male mouse liver microsomes. The concentrations of parent compounds in reaction systems were evaluated by LC-MS/MS for estimating the stability in pooled human and male mouse liver microsomes. The in vitro intrinsic clearances of test compounds were determined as well.
(§3) A master solution in the “Incubation Plate” containing phosphate buffer, ultra-pure H2O, MgCl2 solution and liver microsomes was made according to Table 3. The mixture was pre-warmed at 37° C. water bath for 5 minutes.
(§4) 40 μL of 10 mM NADPH solution was added to each well. The final concentration of NADPH was 1 mM. The negative control samples were prepared by replacing NADPH with 40 μL of ultra-pure H2O. Samples were prepared in duplicate. Negative controls were prepared in singlet.
(§5) The reaction was started with the addition of 4 μL of 200 μM test compounds or control compounds to each master solution to get the final concentration of 2 μM. This study was performed in duplicate.
(§6) Aliquots of 50 μL were taken from the reaction solution at 0, 15, 30, 45 and 60 minutes. The reaction solutions were stopped by the addition of 4 volumes of cold methanol with IS (100 nM alprazolam, 200 nM imipramine, 200 nM labetalol and 2 μM ketoprofen). Samples were centrifuged at 3,220 g for 40 minutes. Aliquot of 90 μL of the supernatant was mixed with 90 μL of ultra-pure H2O and then was used for LC-MS/MS analysis.
(§7) LC/MS analysis was performed for all samples from this study using a Shimadzu liquid chromatograph separation system equipped with degasser DGU-20A5R; solvent delivery unit LC-30AD; system controller SIL-30AC; column oven CTO-30A; CTC Analytics HTC PAL System. Mass spectrometric analysis was performed using an Triple Quad™ 5500 instrument.
(§8) All calculations were carried out using Microsoft Excel. Peak area ratios of test compound to internal standard (listed in the below table) were determined from extracted ion chromatograms.
(§9) All calculations were carried out using Microsoft Excel. Peak areas were determined from extracted ion chromatograms. The slope value, k, was determined by linear regression of the natural logarithm of the remaining percentage of the parent drug vs. incubation time curve.
(§10) The in vitro half-life (in vitro t1/2) was determined from the slope value:
(§11) Conversion of the in vitro t1/2(min) into the in vitro intrinsic clearance (in vitro CLint, in μL/min/mg proteins) was done using the following equation (mean of duplicate determinations): […]

[7] = Liver microsomes stability, rat; conditions: for Remaining Percentage (%): Rat
Protocol: as §2, §3, §4, §5, §6, §7, §8, §9, §10, §11

[8] = Liver microsomes stability, mouse; conditions: for Remaining Percentage (%): Mouse
Protocol: as §2, §3, §4, §5, §6, §7, §8, §9, §10, §11

[9] = Liver microsomes stability, dog; conditions: for Remaining Percentage (%): Dog

For `COc1ccc2[nH]cc(CCN(C)C)c2c1` [Compound 5-MeO-DMT, 5-methoxy-dimethoxytryptamine, reference compound], the “ED50, head twitch response” value ([1]; SC) was 8 mg/kg, the “duration of HT expression” value [1] was 0 to 20 min and the “ED50, generalization to the 5-MeO-DMT cue” value ([2]; SC administration, FIG. 8) was roughly 0.2 mg/kg. The “dose required to show generalization to the 5-MeO-DMT cue” value ([2]; FIG. 8) was 10 mg/kg.

For `CCCCC/C=C\C/C=C\CCCCCCCC(=O)n1cc(CCN(C)C)c2cc(OC)ccc21` [Compound I-1, (9Z,12Z)-1-(3-(2-(Dimethylamino)ethyl)-5-methoxy-1H-indol-1-yl)octadeca-9,12-dien-1-one], the pIC50 [3] was greater than 5.70, the “head twitch response expression” value ([1]; 1-60 mg/kg SC) was “robust head twitch response” and the ED50 ([1]; SC, read-out: ED50, head twitch response) was 2.8 mg/kg. The “duration of HT expression” value [1] was 0 to 30 min, the “signs of 5-HT syndrome (whole body twitches, FPT, Straub tail)” value ([4]; up to 60 mg/kg SC) was “did not induce signs of 5-HT syndrome” and the “motor activity or rearing” value [5] was “did not reduce motor activity or rearing to the same extent as 5-MeO-DMT”.

With `[2H]C([2H])(c1cn(C(=O)CCCCCCC/C=C\C/C=C\CCCCC)c2ccccc12)[C@H]1CCCN1C([2H])([2H])[2H]` [Compound I-2, (9Z,12Z)-1-(3-(((R)-1-(Methyl-d3)pyrrolidin-2-yl)methyl-d2)-1H-indol-1-yl)octadeca-9,12-dien-1-one] the pIC50 [3] was greater than 5.70, the “Predicted hepatic CL” value ([6]; Human liver microsomes) was 5.79 mL/min/kg and the “Remaining Percentage (%)” value ([6]; With NADPH, 0 min) was 100.00%. For the same compound, the “Remaining Percentage (%)” value ([6]; With NADPH, 30 min) was 87.61%, the “Remaining Percentage (%)” value ([6]; With NADPH, 60 min) was 82.52% and the “Remaining Percentage (%)” value ([6]; Without NADPH, 0 min) was 100.00%. For the same compound, the “Remaining Percentage (%)” value ([6]; Without NADPH, 30 min) was 114.91%, the “Remaining Percentage (%)” value ([6]; Without NADPH, 60 min) was 83.75% and the CLint scaled at 2 μM ([6]; human, microsomes) was 8.03 mL/min/kg. For the same compound, the half-life at 2 μM ([6]; human, microsomes) was 216 min, the microsomal CLint at 2 μM ([6]; human, microsomes) was 6.4 µL/min/mg and the “Predicted hepatic CL” value ([7]; Rat liver microsomes) was 27.34 mL/min/kg. For the same compound, the “Remaining Percentage (%)” value ([7]; With NADPH, 0 min) was 100.00%, the “Remaining Percentage (%)” value ([7]; With NADPH, 30 min) was 56.08% and the “Remaining Percentage (%)” value ([7]; With NADPH, 60 min) was 40.37%. The “Remaining Percentage (%)” value ([7]; Without NADPH, 0 min) was 100.00%, the “Remaining Percentage (%)” value ([7]; Without NADPH, 30 min) was 94.64% and the “Remaining Percentage (%)” value ([7]; Without NADPH, 60 min) was 84.47%. The CLint scaled at 2 μM ([7]; rat, microsomes) was 54.2 mL/min/kg, the half-life at 2 μM ([7]; rat, microsomes) was 45.8 min and the microsomal CLint at 2 μM ([7]; rat, microsomes) was 30.2 µL/min/mg. The “Predicted hepatic CL” value ([8]; Mouse liver microsomes) was 50.97 mL/min/kg, the “Remaining Percentage (%)” value ([8]; With NADPH, 0 min) was 100.00% and the “Remaining Percentage (%)” value ([8]; With NADPH, 30 min) was 71.53%. The “Remaining Percentage (%)” value ([8]; With NADPH, 60 min) was 44.66%, the “Remaining Percentage (%)” value ([8]; Without NADPH, 0 min) was 100.00% and the “Remaining Percentage (%)” value ([8]; Without NADPH, 30 min) was 95.81%. The “Remaining Percentage (%)” value ([8]; Without NADPH, 60 min) was 80.93%, the CLint scaled at 2 μM ([8]; male, mouse, microsomes) was 118 mL/min/kg and the half-life at 2 μM ([8]; male, mouse, microsomes) was 51.6 min. The microsomal CLint at 2 μM ([8]; male, mouse, microsomes) was 26.9 µL/min/mg, the head twitch response [1] was “robust head twitch response” and the “signs of 5-HT syndrome” value [4] was “no signs of 5-HT syndrome”. For the same compound, the ED50 [2] was roughly 30 mg/kg, the “level of partial generalization to the 5-MeO-DMT cue” value ([2]; rats trained to 1 mg/kg 5-MeO-DMT vs saline, FIG. 7) was roughly 60% and the “Predicted hepatic CL” value ([9]; Dog liver microsomes) was 22.14 mL/min/kg. For the same compound, the “Remaining Percentage (%)” value ([9]; With NADPH, 0 min) was 100.00%, the “Remaining Percentage (%)” value ([9]; With NADPH, 30 min) was 66.91% and the “Remaining Percentage (%)” value ([9]; With NADPH, 60 min) was 39.08%. The “Remaining Percentage (%)” value ([9]; Without NADPH, 0 min) was 100.00%, the “Remaining Percentage (%)” value ([9]; Without NADPH, 30 min) was 94.42% and the “Remaining Percentage (%)” value ([9]; Without NADPH, 60 min) was 91.63%. It also gave a CLint scaled at 2 μM ([9]; dog, microsomes) of 78.1 mL/min/kg, a half-life at 2 μM ([9]; dog, microsomes) of 44.3 min and a microsomal CLint at 2 μM ([9]; dog, microsomes) of 31.3 µL/min/mg.

For `[2H]C([2H])(c1cn(C(=O)CCCCCCC/C=C\C/C=C\CCCCC)c2ccc(OC)cc12)[C@H]1CCCN1C([2H])([2H])[2H]` [Compound I-3, (9Z,12Z)-1-(5-Methoxy-3-(((R)-1-(methyl-d3)pyrrolidin-2-yl)methyl-d2)-1H-indol-1-yl)octadeca-9,12-dien-1-one], the pIC50 [3] was greater than 5.70, the head twitch response [1] was “robust head twitch response” and the “signs of 5-HT syndrome” value [4] was “no signs of 5-HT syndrome”. The ED50 ([2]; SC administration, FIG. 8) was roughly 6 mg/kg and the “dose required to show generalization to the 5-MeO-DMT cue” value ([2]; FIG. 8) was 100 mg/kg.
